Usually IC50 stands for the point on the concentration scale where inhibition reaches its midpoint. A lower IC50 goes with greater potency in that assay. The IC90 is the concentration needed for an effect of 90%. Read a high IC90 as a need for much substance.

We go through 26 compounds from ChEMBL document CHEMBL1134822, “Trifluoromethyl-containing 3-alkoxymethyl- and 3-aryloxymethyl-2-pyridinones are potent inhibitors of HIV-1 non-nucleoside reverse transcriptase” (Bioorg Med Chem Lett, 2001).

The target of test [1] is Human immunodeficiency virus type 1 reverse transcriptase (Human immunodeficiency virus 1, UniProt Q72547). The test can be described thus: Inhibition of the NNRTI HIV-1 enzyme by 50% using enzyme assay.
Test [2] concerns Human immunodeficiency virus 1. Put plainly: Antiviral activity against HIV-1 in MT-2 (human leukemia) cells in vitro. It is filed as functional.
Test [3] relates to Human immunodeficiency virus type 1 reverse transcriptase (Human immunodeficiency virus 1), Q72547 [K103N,P225H].
The subject of test [4] is HIV-1 reverse transcriptase (Human immunodeficiency virus 1). Put plainly: Compound was evaluated for its ability to inhibit the mutant K103N NNRTI HIV-1 enzyme.
For test [5] the test system is unchanged. Put plainly: Compound was evaluated for its ability to inhibit the NNRTI HIV-1 enzyme by 90% using whole cell assay.
For test [6] the test system is unchanged. The test can be described thus: Compound was evaluated for its ability to inhibit the mutant K103N V1081NNRTI HIV-1 enzyme.
For test [7] the test system is unchanged. The test can be described thus: Compound was evaluated for its ability to inhibit the mutant K103N L1001 NNRTI HIV-1 enzyme.

In test [1], `Oc1ncccc1C(C#CC1CC1)(Oc1cccc(Oc2ccccc2)c1)C(F)(F)F` (stereo not given) came in with an IC50 of 24300 nM. For the same compound, in test [2], the IC90 was more than 1140 nM.
On to `CCc1cc(NCc2nc3c(Cl)ccc(Cl)c3o2)c(O)nc1C` [L-697661], for which the IC90 in test [2] was found to be 50 nM.
As for `CCc1cc(C(C#CC2CC2)(OC)C(F)(F)F)c(O)nc1C` (stereo not given), half-maximal inhibition in test [1] (IC50) required 770 nM. This compound also came in with an IC90 in test [2] of 201 nM.
As to `CCc1cc(C(C#CC2CC2)(OCc2c(Cl)cccc2Cl)C(F)(F)F)c(O)nc1C` (stereo not given), half-maximal inhibition in test [1] (IC50) was put at 41100 nM. Further, the IC90 in test [2] was found to be 157 nM.
Compound `Oc1ncccc1C(C#CC1CC1)(OCc1cccnc1)C(F)(F)F` (stereo not given) displayed a 50% inhibitory concentration (IC50) in test [1] of 25600 nM. This compound showed an IC90 in test [2] of more than 1440 nM.
Take `O=C1Nc2ccc(Cl)cc2[C@@](C#CC2CC2)(C(F)(F)F)N1`: the IC90 is 73 nM in test [3], 10 nM in test [4], 2 nM in test [5] and 38 nM in test [6].
Compound `CCc1cc(C(C#CC2CC2)(OCc2ccccc2)C(F)(F)F)c(=O)[nH]c1C` (stereo not given) came in with an IC50 in test [1] of 1350 nM. That is a single-digit micromolar value.
On to `Oc1ncccc1C(C#Cc1ccccc1)(OCc1ccccc1)C(F)(F)F` (stereo not given), for which half-maximal inhibition in test [1] (IC50) required 11700 nM. For the same compound, the IC90 in test [2] is more than 1300 nM.
Compound `CCCOC(C#CC1CC1)(c1cc(CC)c(C)nc1O)C(F)(F)F` (stereo not given) showed an IC50 in test [1] of 105 nM. This compound gave a concentration for an effect of 90% (IC90) in test [2] of 32 nM.
The like results for `CCc1cc(C(C#CC2CC2)(OCc2c(F)cccc2F)C(F)(F)F)c(O)nc1C` (stereo not given) were, in that order, 613 nM and 49 nM.
As to `CCCCOC(C#CC1CC1)(c1cc(CC)c(C)nc1O)C(F)(F)F` (stereo not given), it took 129 nM to reach half-maximal inhibition in test [1] (IC50). The IC90 in test [2] came to 42 nM.
The like results for `CCc1cc(C(C#CC2CC2)(OCC2CC2)C(F)(F)F)c(O)nc1C` (stereo not given) were, in that order, 188 nM and 37 nM.
The like results for `Oc1ncccc1C(/C=C/C1CC1)(OCc1ccccc1)C(F)(F)F` (stereo not given) were, in that order, 16700 nM and more than 1400 nM.
`CCc1cc(C(C#CC2CC2)(OCC#N)C(F)(F)F)c(O)nc1C` (stereo not given) displayed an IC50 in test [1] of 1840 nM. The compound also had an IC90 in test [2] of 1400 nM.
`CCOC(C#CC1CC1)(c1cc(CC)c(C)nc1O)C(F)(F)F` (stereo not given): the IC50 in test [1] was determined as 183 nM. This compound also gave an IC90 in test [2] of 95 nM.
The corresponding values for `CCc1cc(C(C#CC2CC2)(OCc2cc(OC)cc(OC)c2)C(F)(F)F)c(O)nc1C` (stereo not given) are 3840 nM and 579 nM.
As for `Oc1ncccc1C(C#CC1CC1)(OCc1ccccn1)C(F)(F)F` (stereo not given), in test [1], the IC50 turned out to be 26000 nM. In addition, the IC90 in test [2] came to 1010 nM.
The like results for `Oc1ncccc1C(C#CC1CC1)(OCc1ccncc1)C(F)(F)F` (stereo not given) were, in that order, 8110 nM and 431 nM.
`CCc1cc(C(C#CC2CC2)(OCc2c(F)cccc2Cl)C(F)(F)F)c(O)nc1C` (stereo not given): the half-maximal inhibitory concentration (IC50) in test [1] was found to be 6090 nM. The compound also had an IC90 in test [2] of 61 nM.
The corresponding values for `Oc1nc2ccccc2cc1C(C#CC1CC1)(OCc1ccccc1)C(F)(F)F` (stereo not given) are 36000 nM and 579 nM.
Turning to `CCc1cc(C(C#CC2CC2)(OCc2ccccc2)C(F)(F)F)c(O)nc1C` (stereo not given), the IC90 in test [3] is 283 nM; in test [4] it was 113 nM; in test [5] it was 46 nM; in test [7], 668 nM; in test [6] it was 1210 nM.
With `Oc1ncccc1C(C#CC1CC1)(OCc1ccccc1)C(F)(F)F` (stereo not given), 11800 nM corresponded to half-maximal inhibition in test [1] (IC50). This compound registered an IC90 in test [2] of 182 nM.
In test [1], `CCc1cc(C(C#CC2CC2)(OCc2ccc(Cl)cc2Cl)C(F)(F)F)c(O)nc1C` (stereo not given) displayed an IC50 of 2700 nM. The IC90 in test [2] came to 190 nM.
The corresponding values for `Oc1ncccc1C(/C=C/c1ccccc1)(OCc1ccccc1)C(F)(F)F` (stereo not given) are 43900 nM and more than 1300 nM.
The corresponding values for `CCc1cc(C(C#CC2CC2)(OCc2c(F)cccc2OC)C(F)(F)F)c(O)nc1C` (stereo not given) are 1950 nM and 160 nM.
With `O=C1Nc2ccc(Cl)cc2[C@@](/C=C/C2CC2)(C(F)(F)F)N1`, the IC90 in test [3] came to 140 nM; in test [6] it was 90 nM.
